Experiment: xn = mol fraction of the nth substance listed
Conditions: 101.3 kPa, Liquid; for viscosity: Falling or rolling sphere viscometry; for mass density: Vibrating tube method

CCn1cc[n+](C)c1.O=S(=O)([N-]S(=O)(=O)C(F)(F)F)C(F)(F)F + CCOC(=O)OCC
Conditions	mass density [kg/m3]	viscosity [mPa·s]
288.15 K, x1 = 0.0991	1090.45	1.938
288.15 K, x1 = 0.1982	1179.3	3.368
288.15 K, x1 = 0.3024	1254.64	5.628
288.15 K, x1 = 0.3979	1312.21	8.533
288.15 K, x1 = 0.4982	1362.22	12.38
288.15 K, x1 = 0.5963	1404.91	17.23
288.15 K, x1 = 0.6992	1442.62	24.14
288.15 K, x1 = 0.7987	1475.05	31.13
288.15 K, x1 = 0.9	1503.75	39.07
288.15 K, x1 = 1	1528.55	49.41
293.15 K, x1 = 0.0991	1085.01	1.769
293.15 K, x1 = 0.1982	1173.95	3.032
293.15 K, x1 = 0.3024	1249.39	4.987
293.15 K, x1 = 0.3979	1306.99	7.45
293.15 K, x1 = 0.4982	1357.04	10.66
293.15 K, x1 = 0.5963	1399.78	14.65
293.15 K, x1 = 0.6992	1437.5	20.32
293.15 K, x1 = 0.7987	1469.95	25.96
293.15 K, x1 = 0.9	1498.66	32.29
293.15 K, x1 = 1	1523.47	40.36
298.15 K, x1 = 0.0991	1079.54	1.623
298.15 K, x1 = 0.1982	1168.6	2.746
298.15 K, x1 = 0.3024	1244.11	4.452
298.15 K, x1 = 0.3979	1301.78	6.552
298.15 K, x1 = 0.4982	1351.87	9.269
298.15 K, x1 = 0.5963	1394.64	12.59
298.15 K, x1 = 0.6992	1432.38	17.65
298.15 K, x1 = 0.7987	1464.86	21.91
298.15 K, x1 = 0.9	1493.58	27.04
298.15 K, x1 = 1	1518.39	33.52
303.15 K, x1 = 0.0991	1074.07	1.495
303.15 K, x1 = 0.1982	1163.23	2.498
303.15 K, x1 = 0.3024	1238.83	3.992
303.15 K, x1 = 0.3979	1296.56	5.819
303.15 K, x1 = 0.4982	1346.7	8.127
303.15 K, x1 = 0.5963	1389.51	10.93
303.15 K, x1 = 0.6992	1427.28	15.41
303.15 K, x1 = 0.7987	1459.77	18.79
303.15 K, x1 = 0.9	1488.51	22.93
303.15 K, x1 = 1	1513.34	28.35
308.15 K, x1 = 0.0991	1068.56	1.389
308.15 K, x1 = 0.1982	1157.86	2.288
308.15 K, x1 = 0.3024	1233.56	3.607
308.15 K, x1 = 0.3979	1291.36	5.196
308.15 K, x1 = 0.4982	1341.55	7.192
308.15 K, x1 = 0.5963	1384.4	9.572
308.15 K, x1 = 0.6992	1422.19	13.37
308.15 K, x1 = 0.7987	1454.71	16.59
308.15 K, x1 = 0.9	1483.46	19.65
308.15 K, x1 = 1	1508.3	24.15
313.15 K, x1 = 0.0991	1063.05	1.29
313.15 K, x1 = 0.1982	1152.48	2.102
313.15 K, x1 = 0.3024	1228.28	3.278
313.15 K, x1 = 0.3979	1286.15	4.672
313.15 K, x1 = 0.4982	1336.41	6.41
313.15 K, x1 = 0.5963	1379.3	8.445
313.15 K, x1 = 0.6992	1417.12	11.6
313.15 K, x1 = 0.7987	1449.66	14.56
313.15 K, x1 = 0.9	1478.42	17.36
313.15 K, x1 = 1	1503.28	20.76
318.15 K, x1 = 0.0991	1057.53	1.204
318.15 K, x1 = 0.1982	1147.11	1.939
318.15 K, x1 = 0.3024	1223.01	2.993
318.15 K, x1 = 0.3979	1280.95	4.223
318.15 K, x1 = 0.4982	1331.27	5.749
318.15 K, x1 = 0.5963	1374.2	7.525
318.15 K, x1 = 0.6992	1412.06	10.14
318.15 K, x1 = 0.7987	1444.62	12.72
318.15 K, x1 = 0.9	1473.41	15.35
318.15 K, x1 = 1	1498.27	17.9
323.15 K, x1 = 0.0991	1051.98	1.121
323.15 K, x1 = 0.1982	1141.72	1.794
323.15 K, x1 = 0.3024	1217.74	2.746
323.15 K, x1 = 0.3979	1275.76	3.839
323.15 K, x1 = 0.4982	1326.13	5.184
323.15 K, x1 = 0.5963	1369.11	6.739
323.15 K, x1 = 0.6992	1407.01	8.895
323.15 K, x1 = 0.7987	1439.6	11.15
323.15 K, x1 = 0.9	1468.41	13.53
323.15 K, x1 = 1	1493.28	15.93
328.15 K, x1 = 0.0991	1046.42	1.049
328.15 K, x1 = 0.1982	1136.32	1.667
328.15 K, x1 = 0.3024	1212.46	2.528
328.15 K, x1 = 0.3979	1270.58	3.509
328.15 K, x1 = 0.4982	1321.01	4.704
328.15 K, x1 = 0.5963	1364.03	6.075
328.15 K, x1 = 0.6992	1401.98	7.875
328.15 K, x1 = 0.7987	1434.59	9.813
328.15 K, x1 = 0.9	1463.42	11.93
328.15 K, x1 = 1	1488.31	14.26

CCCC[n+]1ccn(C)c1.O=S(=O)([N-]S(=O)(=O)C(F)(F)F)C(F)(F)F + COC(=O)OC
Conditions	mass density [kg/m3]	viscosity [mPa·s]
288.15 K, x1 = 0.0898	1178.03	1.605
288.15 K, x1 = 0.1882	1250.71	3.207
288.15 K, x1 = 0.2749	1295.36	5.396
288.15 K, x1 = 0.3754	1334.26	9.186
288.15 K, x1 = 0.472	1362.15	14.3
288.15 K, x1 = 0.5745	1385.8	22.53
288.15 K, x1 = 0.673	1404.16	32.06
288.15 K, x1 = 0.7799	1419.88	44.52
288.15 K, x1 = 0.8948	1434.65	61.53
288.15 K, x1 = 1	1445.66	78.02
293.15 K, x1 = 0.0898	1172.07	1.473
293.15 K, x1 = 0.1882	1245.1	2.886
293.15 K, x1 = 0.2749	1289.95	4.762
293.15 K, x1 = 0.3754	1329.02	7.93
293.15 K, x1 = 0.472	1357.02	12.12
293.15 K, x1 = 0.5745	1380.77	18.87
293.15 K, x1 = 0.673	1399.14	26.3
293.15 K, x1 = 0.7799	1414.97	35.81
293.15 K, x1 = 0.8948	1429.79	48.74
293.15 K, x1 = 1	1440.84	61.32
298.15 K, x1 = 0.0898	1166.07	1.365
298.15 K, x1 = 0.1882	1239.48	2.611
298.15 K, x1 = 0.2749	1284.55	4.235
298.15 K, x1 = 0.3754	1323.78	6.922
298.15 K, x1 = 0.472	1351.9	10.39
298.15 K, x1 = 0.5745	1375.74	16.3
298.15 K, x1 = 0.673	1394.18	21.86
298.15 K, x1 = 0.7799	1410.07	29.38
298.15 K, x1 = 0.8948	1424.93	39.46
298.15 K, x1 = 1	1436.01	48.93
303.15 K, x1 = 0.0898	1160.05	1.263
303.15 K, x1 = 0.1882	1233.85	2.376
303.15 K, x1 = 0.2749	1279.14	3.797
303.15 K, x1 = 0.3754	1318.55	6.1
303.15 K, x1 = 0.472	1346.78	8.998
303.15 K, x1 = 0.5745	1370.71	14
303.15 K, x1 = 0.673	1389.23	18.59
303.15 K, x1 = 0.7799	1405.18	24.46
303.15 K, x1 = 0.8948	1420.08	32.86
303.15 K, x1 = 1	1431.21	39.84
308.15 K, x1 = 0.0898	1154.02	1.173
308.15 K, x1 = 0.1882	1228.22	2.176
308.15 K, x1 = 0.2749	1273.73	3.428
308.15 K, x1 = 0.3754	1313.32	5.404
308.15 K, x1 = 0.472	1341.67	7.885
308.15 K, x1 = 0.5745	1365.7	11.98
308.15 K, x1 = 0.673	1384.29	16.17
308.15 K, x1 = 0.7799	1400.31	20.58
308.15 K, x1 = 0.8948	1415.26	27.73
308.15 K, x1 = 1	1426.43	32.91
313.15 K, x1 = 0.0898	1147.98	1.095
313.15 K, x1 = 0.1882	1222.58	2.002
313.15 K, x1 = 0.2749	1268.32	3.113
313.15 K, x1 = 0.3754	1308.09	4.822
313.15 K, x1 = 0.472	1336.58	6.959
313.15 K, x1 = 0.5745	1360.7	10.3
313.15 K, x1 = 0.673	1379.37	14.01
313.15 K, x1 = 0.7799	1395.44	17.54
313.15 K, x1 = 0.8948	1410.45	23.58
313.15 K, x1 = 1	1421.66	27.56
318.15 K, x1 = 0.0898	1141.93	1.022
318.15 K, x1 = 0.1882	1216.94	1.849
318.15 K, x1 = 0.2749	1262.92	2.837
318.15 K, x1 = 0.3754	1302.88	4.332
318.15 K, x1 = 0.472	1331.49	6.189
318.15 K, x1 = 0.5745	1355.71	8.913
318.15 K, x1 = 0.673	1374.45	12.1
318.15 K, x1 = 0.7799	1390.59	15.2
318.15 K, x1 = 0.8948	1405.67	19.93
318.15 K, x1 = 1	1416.91	23.33
323.15 K, x1 = 0.0898	1135.85	0.958
323.15 K, x1 = 0.1882	1211.3	1.719
323.15 K, x1 = 0.2749	1257.51	2.6
323.15 K, x1 = 0.3754	1297.67	3.943
323.15 K, x1 = 0.472	1326.4	5.54
323.15 K, x1 = 0.5745	1350.73	7.757
323.15 K, x1 = 0.673	1369.55	10.53
323.15 K, x1 = 0.7799	1385.74	13.21
323.15 K, x1 = 0.8948	1400.88	17.01
323.15 K, x1 = 1	1412.17	19.97
328.15 K, x1 = 0.0898	1129.76	0.899
328.15 K, x1 = 0.1882	1205.65	1.588
328.15 K, x1 = 0.2749	1252.1	2.394
328.15 K, x1 = 0.3754	1292.46	3.59
328.15 K, x1 = 0.472	1321.33	4.994
328.15 K, x1 = 0.5745	1345.75	6.772
328.15 K, x1 = 0.673	1364.66	9.191
328.15 K, x1 = 0.7799	1380.9	11.54
328.15 K, x1 = 0.8948	1396.12	14.93
328.15 K, x1 = 1	1407.45	17.41
